Data from patent EP0393973A1, “Antitumor Agent Indicated for lung cancer” (priority 1989, dated 1990).

Columns and labels:
platelet aggregation = assay: Suppression of platelet aggregation; conditions: substance per se
sarcoma 180 = conditions: oral administration to mice bearing sarcoma 180; cited from earlier work
chicken embryos = conditions: cited from earlier work
[1] = Observation of gastric mucosa after oral dosing of normal rats; conditions: rat, in vivo
Description: It was therefore assumed that a massive dose of citral or lemongrass oil which contains citral as its principal constituent would adversely affect normal cells. • (2) Instead of dosing lemongrass oil directly to normal rats, lemongrass oil or citral in β-cyclodextrin clathrates was mixed with feed.

For `CC(C)=CCCC(C)=CC=O` [Citral, citral], the platelet aggregation (platelet aggregation) is listed as “strongly suppresses”, the “growth of cancer cells” value (sarcoma 180) is listed as “suppresses growth of cancer cells” and the teratogenicity (chicken embryos) is listed as “teratogenic”. For the same compound, the “findings on the gastric mucosa” value [1] was “petechiae were observed on the gastric mucosa”.
